Where “and” joins values, the source holds several entries; their conditions need not be identical. Identical values can stand only once.

A short description of series [1]: Kinetic measurements: stopped-flow ESR, reduction of galvinoxyl radical. The series is classed as physicochemical. The conditions noted are these: ESR; kinetic or stoichiometric not stated. The procedure:
Within a biological system where a number of polyphenols may be present at similar concentrations, antioxidant efficacy may be predominantly governed by reaction kinetics rather than stoichiornetry. Consequently, the antioxidant potential of thirteen flavonoids and vitamin E were assessed and their kinetic and stochiometric reduction of a synthetic radical using stopped-flow electron spin resonance (ESR) spectroscopy has been compared. The radical used was galvinoxyl (Galv-O°), (2,6-di-tert-butyl-α-(3,5-di-tert-butyl-4-oxo-2,5-cyclohexadien-1-ylidene)-p-tolyloxy) shown below:
Galv-O°+Phenol-OH≈Galv-OH+phenol-O°
The process is governed by the O—H bond dissociation enthalpy of the donor.
Ethanolic solutions of flavonoid (0.2 mM) and galvinoxyl (0.2 mM) were de-oxygenated under a stream of nitrogen gas. Aliquots (6 ml) were transferred to Hamilton gas-tight syringes (10 ml) coupled to a pneumatic ram and connected to a two-stream ESR quartz flow-cell. In situ reaction at 20° C.±2° C. between the flavonoid and galvinoxyl was initiated by rapidly evacuating the syringes. […] Decay curves were obtained by operating in timesweep mode with the static field set at the resonance maximum of the galvinoxyl signal.

For series [2], the system named is rat liver microsomes from vitamin E-deficient rats. Kind of series: Inhibition of TBARS production in rat liver microsomes from vitamin E-deficient rats. Type of series: biochemical. The procedure: Inhibition of TBARS production in rat liver microsomes from vitamin E-deficient rats by pre-incubation with target antioxidant and related compounds. Microsomes are subcellular fractions containing membrane fragments. In vitamin E-deficient rats, microsomes are especially prone to oxidative free radical damage. This can be quantified in terms of the production of thiobarbituric acid reactive substances (TBARS) which result from radical-mediated destruction of the polyunsaturated fatty acid constituents. Consequently, this is a useful biological model to determine the efficacy of phytochemicals as antioxidant membrane protectants. Vitamin E-deficient microsomal suspensions were incubated for 30 minutes with one of myricetin, sample A, sample B, sample C (as shown below) or d-alpha-tocopherol, or with a compound 9c, 9d, 9e, 9e*, 9f, 9g, 9g*, 9h, 9i* or 9j (prepared as described above in Examples 1 to 10). […] TBARS production was then measured by HPLC.
For orientation: Microsomes from liver hold many membrane-bound enzymes, among them those of drug oxidation.

A further series in a line: Solubility in octanol. Type of series: physicochemical.

As to `O=c1c(O)c(-c2cc(O)c(O)c(O)c2)oc2ccccc12` [Control B], in series [1], the “antioxidant activity by ESR (in words)” value is “retains potent antioxidant activity”. Moreover, the “TBARS production (Mean)” value in series [2] (after 20 minutes incubation with Fe(II)-ADP/ascorbate, normalised to a tocopherol reading of 20, 30 minutes pre-incubation, higher reading = lower protection) is 236.525 and 236.5249. The “membrane protection against TBARS production (in words)” value in series [2] (over the 20 minute oxidation period) is recorded as “does not give rise to significant membrane protective effects”. The “solubility in octanol (in words)” value in the series “Solubility in octanol” was “very soluble in octanol”.

(Values after patent US7601754B2, “Flavonoid compounds as therapeutic antioxidants” (Antoxis Limited, priority 2002, dated 2009).)
